The source of these data is US8263606B2 (Xenon Pharmaceuticals Inc., priority 2008, dated 2012).

One data set deals with sodium channel. The data set is described as follows: Guanidine influx assay (14C-guanidine radiotracer flux, in vitro). It counts as cell-based, human or rat. As to conditions: guanidine influx assay using a known cell line that expresses a sodium channel; activity level class. The method in brief: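 Human or rat sodium channels stably expressed in endogenous or recombinant cells, plated ~100,000 cells/well for 20-24 h at 37 °C. Cells were treated with test agent in low-sodium choline HEPES saline plus aconitine and 14C-guanidine at ambient temperature, washed, and counted by scintillation; IC50 from 4-parameter logistic fit.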

Another data set has as its target CYP3A4 (Homo sapiens, UniProt P08684). The experiment in a line: Cytochrome P450 (CYP450) Inhibition Assay, CYP3A4 (Vivid fluorescence, BOMCC substrate). As to conditions: human, P450 Baculosomes (recombinant CYP3A4), probe BOMCC (Vivid substrate).

pIC50: −log10 of the molar value.

Chain of CYP3A4 (P08684 whole entry): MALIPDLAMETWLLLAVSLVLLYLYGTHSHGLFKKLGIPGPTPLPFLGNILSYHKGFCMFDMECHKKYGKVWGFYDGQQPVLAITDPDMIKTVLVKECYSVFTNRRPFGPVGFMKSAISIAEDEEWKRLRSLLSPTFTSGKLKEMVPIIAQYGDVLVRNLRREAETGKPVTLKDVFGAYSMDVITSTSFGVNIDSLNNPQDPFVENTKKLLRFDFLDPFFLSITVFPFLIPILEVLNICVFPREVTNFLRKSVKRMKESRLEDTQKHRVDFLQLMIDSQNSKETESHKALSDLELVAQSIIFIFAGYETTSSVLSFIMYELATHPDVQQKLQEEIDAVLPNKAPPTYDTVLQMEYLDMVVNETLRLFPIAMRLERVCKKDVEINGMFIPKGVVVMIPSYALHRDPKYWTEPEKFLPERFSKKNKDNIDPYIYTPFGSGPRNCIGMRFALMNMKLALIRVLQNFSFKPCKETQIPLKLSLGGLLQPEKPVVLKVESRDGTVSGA

The term melting point denotes the temperature of the solid-liquid transition. By pIC50 is commonly meant the negative decadic logarithm of the IC50, by convention in mol/L. As a reminder, the inhibition is the relative decrease from the control value, in per cent. Regarding `O=C1N(C[C@H]2CCCO2)c2cccc(Cl)c2C12COc1cc3c(cc12)CCO3` (stereo partly drawn) [Example 4.34, 4′-chloro-1′-[(2R)-tetrahydrofuran-2-ylmethyl]-5,6-dihydrospiro[benzo[1,2-b:5,4-b′]difuran-3,3′-indol]-2′(1′H)-one], the melting point is 78 to 82 °C. Moreover, the pIC50 in the data set with sodium channel was 7.00 to 9.00. Further, the inhibition at 10 µM at CYP3A4 is less than 50%.

In the case of `O=C1N(C[C@H]2CCCO2)c2cccc(Br)c2C12COc1cc3c(cc12)CCO3` (stereo partly drawn) [Example 4.35, 4′-bromo-1′-[(2R)-tetrahydrofuran-2-ylmethyl]-5,6-dihydrospiro[benzo[1,2-b:5,4-b′]difuran-3,3′-indol]-2′(1′H)-one], the melting point fell in the range of 137 to 141 °C. Also, the pIC50 with sodium channel is 7.00 to 9.00. Also, the inhibition at 10 µM at CYP3A4 is more than 50%.

`O=C1N(CC2CCOCC2)c2ccccc2C12COc1cc3c(cc12)OCCO3` (stereo not drawn) [Example 4.37, 1′-(tetrahydro-2H-pyran-4-ylmethyl)-2,3-dihydrospiro[furo[2,3-g][1,4]benzodioxine-8,3′-indol]-2′(1′H)-one] registered a melting point of 129 to 131 °C. For the same molecule, the pIC50 in the data set on sodium channel was 7.00 to 9.00. Besides, the inhibition at 10 µM at CYP3A4 was less than 50%.

On to `O=C1N(Cc2ccccn2)c2ccccc2C12COc1cc3c(cc12)OCCO3` (stereo not drawn) [Example 4.41, 1′-(pyridin-2-ylmethyl)-2,3-dihydrospiro[furo[2,3-g][1,4]benzodioxine-8,3′-indol]-2′(1′H)-one], for which the melting point was in the range of 208 to 209 °C. Further, the pIC50 in the data set with sodium channel is 7.00 to 9.00. Also, the inhibition at 10 µM on CYP3A4 was less than 50%.

With `O=C1N(C[C@H]2CCCO2)c2ccccc2C12COc1cc3c(cc12)OCCO3` (stereo partly drawn) [Example 4.44, 1′-[(2R)-tetrahydrofuran-2-ylmethyl]-2,3-dihydrospiro[furo[2,3-g][1,4]benzodioxine-8,3′-indol]-2′(1′H)-one], the melting point was 174 to 176 °C. For the same molecule, the pIC50 with sodium channel is 7.00 to 9.00. Also, the inhibition at 10 µM on CYP3A4 was less than 50%.

For `COc1ccc(CN2C(=O)C3(COc4cc5c(cc43)OCCO5)c3ccccc32)cc1OC` (stereo not drawn) [Example 4.46, 1′-(3,4-dimethoxybenzyl)-2,3-dihydrospiro[furo[2,3-g][1,4]benzodioxine-8,3′-indol]-2′(1′H)-one], the melting point was 209 to 211 °C. The pIC50 in the data set with sodium channel is 7.00 to 9.00. For the same molecule, at CYP3A4, the inhibition at 10 µM is more than 50%.

For the molecule `COc1cc(CN2C(=O)C3(COc4cc5c(cc43)OCCO5)c3ccccc32)cc(OC)c1` (stereo not drawn) [Example 4.47, 1′-(3,5-dimethoxybenzyl)-2,3-dihydrospiro[furo[2,3-g][1,4]benzodioxine-8,3′-indol]-2′(1′H)-one], the melting point is 192 to 195 °C. Also, the pIC50 in the data set with sodium channel was 7.00 to 9.00. The inhibition at 10 µM at CYP3A4 was more than 50%.

In turn, `O=C1N(Cc2ccccn2)c2ccccc2C12COc1cc3c(cc12)OCC3` (stereo not drawn) [Example 4.52, 1′-(pyridin-2-ylmethyl)-6,7-dihydrospiro[benzo[1,2-b:4,5-b′]difuran-3,3′-indol]-2′(1′H)-one] displayed a melting point of 198 to 200 °C. Also, in the data set on sodium channel, the pIC50 is 7.00 to 9.00. Moreover, the inhibition at 10 µM on CYP3A4 is less than 50%.

For `O=C1N(C[C@H]2CCCO2)c2ccccc2C12COc1cc3c(cc12)CCCO3` (stereo partly drawn) [Example 4.53, 1′-[(2R)-tetrahydrofuran-2-ylmethyl]-6,7-dihydro-5H-spiro[furo[3,2-g]chromene-3,3′-indol]-2′(1′H)-one], the melting point fell in the range of 151 to 156 °C. The pIC50 in the data set on sodium channel is 6.00 to 7.00. At CYP3A4, the inhibition at 10 µM was less than 50%.

Molecule `Cc1nc2cc3c(cc2s1)C1(CO3)C(=O)N(CCC(C)C)c2ccccc21` (stereo not drawn) [Example 4.56, 2-methyl-1′-(3-methylbutyl)spiro[furo[2,3-f][1,3]benzothiazole-7,3′-indol]-2′(1′H)-one] yielded a melting point of 137 to 138 °C. The pIC50 in the data set on sodium channel was 5.00 to 6.00. The inhibition at 10 µM at CYP3A4 was more than 50%.

`Cc1nc2cc3c(cc2s1)C1(CO3)C(=O)N(CC2CCOCC2)c2ccccc21` (stereo not drawn) [Example 4.57, 2-methyl-1′-(tetrahydro-2H-pyran-4-ylmethyl)spiro[furo[2,3-f][1,3]benzothiazole-7,3′-indol]-2′(1′H)-one] had a melting point of 186 to 187 °C. Also, the pIC50 in the data set with sodium channel was 5.00 to 6.00. Also, at CYP3A4, the inhibition at 10 µM is more than 50%.

On to `Cc1nc2cc3c(cc2o1)C1(CO3)C(=O)N(C[C@H]2CCCO2)c2ccccc21` (stereo partly drawn) [Example 4.58, 2-methyl-1′-[(2R)-tetrahydrofuran-2-ylmethyl]spiro[furo[2,3-f][1,3]benzoxazole-7,3′-indol]-2′(1′H)-one], for which the melting point was 188 to 190 °C. For the same molecule, in the data set on sodium channel, the pIC50 was 5.00 to 6.00. In addition, the inhibition at 10 µM at CYP3A4 was less than 50%.

Consider `CN1C(=O)COc2cc3c(cc21)C1(CO3)C(=O)N(C[C@H]2CCCO2)c2ccccc21` (stereo partly drawn) [Example 4.59, 1-methyl-1′-[(2R)-tetrahydrofuran-2-ylmethyl]-1H-spiro[furo[3,2-g][1,4]benzoxazine-8,3′-indole]-2,2′(1′H-3H)-dione], for which the melting point lay in the range of 79 to 81 °C. Further, the pIC50 in the data set with sodium channel was 5.00 to 6.00. Besides, the inhibition at 10 µM on CYP3A4 is less than 50%.

On to `Cn1c(=O)oc2cc3c(cc21)C1(CO3)C(=O)N(C[C@H]2CCCO2)c2ccccc21` (stereo partly drawn) [Example 4.60, 1-methyl-1′-[(2R)-tetrahydrofuran-2-ylmethyl]spiro[furo[3,2-f][1,3]benzoxazole-7,3′-indole]-2,2′(1′H,1′H)-dione], for which the melting point was more than 250 °C. Further, the pIC50 in the data set with sodium channel was 5.00 to 6.00. Also, on CYP3A4, the inhibition at 10 µM is less than 50%.

`COc1cc2c(cc1C)C1(CO2)C(=O)N(C[C@H]2CCCO2)c2ccccc21` (stereo partly drawn) [Example 4.61, 6-methoxy-5-methyl-1′-[(2R)-tetrahydrofuran-2-ylmethyl]spiro[1-benzofuran-3,3′-indol]-2′(1′H)-one] returned a melting point of 151 to 153 °C. The pIC50 in the data set on sodium channel is 5.00 to 6.00. For the same molecule, the inhibition at 10 µM at CYP3A4 was less than 50%.

`COc1cc2c(cc1C)C1(CO2)C(=O)N(CC2CCCCO2)c2ccccc21` (stereo not drawn) [Example 4.63, 6-methoxy-5-methyl-1′-(tetrahydro-2H-pyran-2-ylmethyl)spiro[1-benzofuran-3,3′-indol]-2′(1′H)-one] gave a melting point of 180 to 182 °C. In the data set with sodium channel, the negative logarithm of the IC50 (pIC50) is 5.00 to 6.00. Further, the inhibition at 10 µM at CYP3A4 was more than 50%.

For the molecule `COc1cc2c(cc1F)C1(CO2)C(=O)N(CC2CCCCO2)c2ccccc21` (stereo not drawn) [Example 4.64, 5-fluoro-6-methoxy-1′-(tetrahydro-2H-pyran-2-ylmethyl)spiro[1-benzofuran-3,3′-indol]-2′(1′H)-one], the melting point is 131 to 133 °C. For the same molecule, in the data set with sodium channel, the pIC50 was 6.00 to 7.00. In addition, at CYP3A4, the inhibition at 10 µM is less than 50%.

Consider `COc1cc2c(cc1F)C1(CO2)C(=O)N(Cc2ccccn2)c2ccccc21` (stereo not drawn) [Example 4.65, 5-fluoro-6-methoxy-1′-(pyridin-2-ylmethyl)spiro[1-benzofuran-3,3′-indol]-2′(1′H)-one], for which the melting point was 142 to 144 °C. Moreover, the pIC50 in the data set with sodium channel is 6.00 to 7.00. In addition, at CYP3A4, the inhibition at 10 µM was less than 50%.

In turn, `COc1cc2c(cc1F)C1(CO2)C(=O)N(C[C@H]2CCCO2)c2ccccc21` (stereo partly drawn) [Example 4.66, 5-fluoro-6-methoxy-1′-[(2R)-tetrahydrofuran-2-ylmethyl]spiro[1-benzofuran-3,3′-indol]-2′(1′H)-one] had a melting point of 106 to 116 °C. Further, in the data set on sodium channel, the pIC50 is 6.00 to 7.00. The inhibition at 10 µM on CYP3A4 is less than 50%.

The molecule `COc1cc2c(cc1F)C1(CO2)C(=O)N(Cc2ccccc2)c2ccccc21` (stereo not drawn) [Example 4.67, 1′-benzyl-5-fluoro-6-methoxyspiro[1-benzofuran-3,3′-indol]-2′(1′H)-one] showed a melting point of 160 to 162 °C. In addition, the pIC50 in the data set with sodium channel was 6.00 to 7.00. Also, the inhibition at 10 µM on CYP3A4 is less than 50%.

`O=C1CC[C@@H](CN2C(=O)C3(COc4cc5c(cc43)OCO5)c3ccccc32)N1` (stereo partly drawn) [Example 4.72, 1′-{[(2S)-5-oxopyrrolidin-2-yl]methyl}spiro[furo[2,3-f][1,3]benzodioxole-7,3′-indol]-2′(1′H)-one] came in with a melting point of 121 to 130 °C. Also, the pIC50 in the data set with sodium channel is 5.00 to 6.00. Also, the inhibition at 10 µM on CYP3A4 was more than 50%.

`N#CCN1C(=O)C2(COc3cc4c(cc32)OCO4)c2ccccc21` (stereo not drawn) [Example 4.73, (2′-oxospiro[furo[2,3-f][1,3]benzodioxole-7,3′-indol]-1′(2′H)-yl)acetonitrile]: the melting point lay within 170 to 172 °C. Besides, in the data set with sodium channel, the pIC50 is 7.00 to 9.00. The inhibition at 10 µM at CYP3A4 is more than 50%.

`O=C1N(Cc2ccc(C(F)(F)F)o2)c2c(C(F)(F)F)cccc2C12COc1cc3c(cc12)OCO3` (stereo not drawn) [Example 4.74, 7′-(trifluoromethyl)-1′-{[5-(trifluoromethyl)-2-furyl]methyl}spiro[furo[2,3-f][1,3]benzodioxole-7,3′-indol]-2′(1′H)-one] showed a melting point of 95 to 98 °C. For the same molecule, in the data set on sodium channel, the pIC50 is 6.00 to 7.00. The inhibition at 10 µM at CYP3A4 was more than 50%.

With `O=C1N(Cc2ccc(Cl)s2)c2c(C(F)(F)F)cccc2C12COc1cc3c(cc12)OCO3` (stereo not drawn) [Example 4.75, 1-[(5-chloro-2-thienyl)methyl]-7′-(trifluoromethyl)spiro[furo[2,3-f][1,3]benzodioxole-7,3′-indol]-2′(1′H)-one], the melting point was in the range of 165 to 166 °C. Also, the pIC50 with sodium channel is 6.00 to 7.00. The inhibition at 10 µM at CYP3A4 is more than 50%.

Regarding `CC(C)c1ncc(CN2C(=O)C3(COc4cc5c(cc43)OCO5)c3cccc(C(F)(F)F)c32)s1` (stereo not drawn) [Example 4.76, 1′-[(2-isopropyl-1,3-thiazol-5-yl)methyl]-7′-(trifluoromethyl)spiro[furo[2,3-f][1,3]benzodioxole-7,3′-indol]-2′(1′H)-one], the melting point lay in the range of 101 to 103 °C. For the same molecule, the pIC50 in the data set on sodium channel was 6.00 to 7.00. Also, the inhibition at 10 µM at CYP3A4 was more than 50%.
